Tests used:
endogenous mouse MPO = molecular target: T1, endogenous mouse MPO (Mus musculus, UniProt P11247); assay: LPS/Matrigel experiments, MR imaging; assay type: in vivo; conditions: mice; LPS/Matrigel right vs Matrigel left
T1 construct: endogenous in cells; host or cells: inflammatory cells recruited by LPS in C57BL6 male mice (Matrigel site in the thigh, or flank muscle myositis)
T1 sequence (P11247 139-718): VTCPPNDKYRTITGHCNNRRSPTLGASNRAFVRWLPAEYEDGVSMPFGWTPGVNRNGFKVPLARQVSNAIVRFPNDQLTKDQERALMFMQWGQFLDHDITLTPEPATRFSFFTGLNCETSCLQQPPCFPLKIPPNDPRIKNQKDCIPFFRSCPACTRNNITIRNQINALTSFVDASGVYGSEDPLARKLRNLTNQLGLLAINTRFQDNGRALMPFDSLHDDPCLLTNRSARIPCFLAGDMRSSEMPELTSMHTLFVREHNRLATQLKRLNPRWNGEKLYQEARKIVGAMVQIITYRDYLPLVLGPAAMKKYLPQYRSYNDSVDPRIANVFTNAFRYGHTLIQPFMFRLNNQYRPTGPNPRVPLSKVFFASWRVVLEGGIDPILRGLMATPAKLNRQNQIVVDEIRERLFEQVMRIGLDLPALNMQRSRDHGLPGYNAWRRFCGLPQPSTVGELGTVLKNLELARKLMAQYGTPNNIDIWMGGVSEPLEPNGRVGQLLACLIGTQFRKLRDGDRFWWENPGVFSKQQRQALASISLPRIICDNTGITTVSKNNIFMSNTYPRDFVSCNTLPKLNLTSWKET
Procedure: The MR imaging experiments were performed on a 1.5 T GE Excite scanner and a 4.7 T Bruker Pharmascan scanner. For all MR imaging experiments, precontrast T2-(TR=2000, TE=100, ETL=8, NEX=4, fast spin echo sequence) and T1-weighted images (TR=500, TE=11, NEX=4, spin echo sequence) with fat saturation were initially performed to locate the gels or area of inflammation. The substrates (0.3 mmol/kg) were subsequently injected via the tail vein of the mouse. The mouse was immediately imaged after the injection of the contrast agent using multiple T1-weighted sequences with fat saturation for at least 3 hours.
Ten-week old C57BL6 male mice were obtained from Jackson Laboratories. A total of 22 mice were used for the study. • 1. MPO/Matrigel imaging experiments: Matrigel™ (Beckton-Dickinson), a […] basement membrane matrix gel was used to immobilize human MPO and glucose oxidase (to supply H2O2 required for detecting MPO oxidative activity, Calbiochem). This was chosen to reflect deposits of human MPO in inflamed tissue in a mouse model. 400 μL of a mixture of Matrigel™ and MEM (Cambrex) was injected slowly into the thighs of each mouse one hour prior to imaging. The right thigh mixture also contained 15 U of MPO and 4 U of glucose oxidase (Calbiochem), while the left thigh mixture contained no enzyme and thus serves as an internal control. […]

MPO = molecular target: T2, MPO (Homo sapiens, UniProt P05164); assay: Matrigel tissue model containing MPO, MR imaging at 1.5 T; assay type: biochemical
T2 construct: purchased BioDesign Inc
Procedure: Standard 96-well plates were prepared and imaged on a 1.5 T whole body clinical General Electric Signa MRI scanner utilizing a standard 3 inch surface coil. Inversion recovery sequences were used to measure T1 relaxation and spin echo sequences were utilized to measure T2 relaxation. T2 weighted images were obtained with TR=5000 ms and TE=100 ms with a fast spin echo sequence. T1 weighted images were obtained with spin echo sequences with the following parameters: TR=100, 200, 350, or 500, TE=11. For the Matrigel™ experiments, a relatively T2 weighted image was obtained at TR=300 ms and TE=200 ms. Single-exponential models were used to obtain T1 and T2. The relaxivities were computed by normalizing relaxation rates to the concentration of gadolinium in each sample, obtained by inductive coupled plasma (ICP) analysis performed by Galbraith Laboratories.
We also designed a tissue model system with Matrigel™ to confirm that the substrates can delineate tissues containing MPO. Substrate was added on top of Matrigel™ containing MPO, and imaged at 1.5 T one hour after sample preparation (to ensure substrate conversion), and at 24 hours after sample preparation. Utilizing this tissue model system, and using glucose/glucose oxidase as the hydrogen peroxide generating system (peroxide is released by neutrophils in vivo), we observed an MPO-specific change in the MR signal (see FIG. 8) that is visible on T1-weighted, T2-weighted, and inversion recovery images, at 1 hour after sample preparation. The changes continued to increase over time, and at 24 hours, there is a 30% increase in the longitudinal relaxation rate (5.3 s^−1 to 6.9 s^−1) and a 20% increase in the transverse relaxation rate (8.8 s^−1 to 10.6 s^−1). […] No such change was identified in control systems where MPO was not present (not shown) or glucose oxidase was not present (see the first cell in FIG. 8).

[1] = Matrigel/substrate interface, at 24 hours

T2 sequence (P05164 279-745 limits assumed): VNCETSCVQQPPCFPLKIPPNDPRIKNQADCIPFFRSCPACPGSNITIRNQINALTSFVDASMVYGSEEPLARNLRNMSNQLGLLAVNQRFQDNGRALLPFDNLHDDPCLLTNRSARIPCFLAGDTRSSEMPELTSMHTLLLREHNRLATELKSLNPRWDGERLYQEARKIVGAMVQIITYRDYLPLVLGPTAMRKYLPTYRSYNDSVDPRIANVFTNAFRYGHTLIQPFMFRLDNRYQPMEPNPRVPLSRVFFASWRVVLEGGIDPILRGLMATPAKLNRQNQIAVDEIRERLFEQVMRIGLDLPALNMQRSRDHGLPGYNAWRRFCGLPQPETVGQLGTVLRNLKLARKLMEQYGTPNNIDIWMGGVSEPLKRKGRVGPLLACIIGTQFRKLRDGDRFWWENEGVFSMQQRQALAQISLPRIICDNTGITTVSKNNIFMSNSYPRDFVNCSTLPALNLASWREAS
T2 sequence (P05164 165-273 limits assumed): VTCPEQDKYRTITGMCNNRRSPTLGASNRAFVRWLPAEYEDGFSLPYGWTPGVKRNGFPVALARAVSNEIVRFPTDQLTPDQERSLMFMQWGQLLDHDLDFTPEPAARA

increase in the longitudinal relaxation rate (MPO; [1])	increase in the transverse relaxation rate (MPO; [1])	longitudinal relaxation rate (MPO; at 24 hours)	transverse relaxation rate (MPO; at 24 hours)	longitudinal relaxation rate (MPO; starting value)	transverse relaxation rate (MPO; starting value)	SMILES	increased enhancement on the MPO side (endogenous mouse MPO)
						O=C([O-])CN(CCN(CC(=O)[O-])CC(=O)NCCc1c[nH]c2ccc(O)cc12)CCN(CC(=O)[O-])CC(=O)NCCc1c[nH]c2ccc(O)cc12.[Gd+3] [2Gd^3+]	1.3 fold
30%	20%	6.9 s⁻¹	10.6 s⁻¹	5.3 s⁻¹	8.8 s⁻¹	CC(C(=O)NCC(=O)NCCc1c[nH]c2ccc(O)cc12)N1CCN(CC(=O)[O-])CCN(CC(=O)[O-])CCN(CC(=O)[O-])CC1.[Gd+3] (stereo not shown) [5-HT-DOTA(Gd), Glycylmethyl DOTA(Gd) 5-Hydroxytryptamide]	

Source: US8153784B2, “Imaging of enzyme activity” (The General Hospital Corporation, priority 2004, dated 2012)
